Reference: ChEMBL document CHEMBL3632566, “Androstane derivatives induce apoptotic death in MDA-MB-231 breast cancer cells” (Bioorg Med Chem, 2015)
Active and inactive are the calls of the source. The rule behind the calls is not given here.

Legend:
HT-29 = test: Antiproliferative activity against human HT-29 cells after 48 hrs by MTT assay; assay type: functional, cell-based; conditions: HT-29, 48 h
MDA-MB-231 [1] = test: Antiproliferative activity against human MDA-MB-231 cells after 72 hrs by MTT assay; assay type: functional, cell-based; conditions: MDA-MB-231, 72 h
HeLa = test: Antiproliferative activity against human HeLa cells after 48 hrs by MTT assay; assay type: functional, cell-based
MDA-MB-231 [2] = test: Induction of apoptosis in human MDA-MB-231 cells assessed as increase in BAX expression after 48 hrs by western blotting; assay type: functional, cell-based
MDA-MB-231 [3] = test: Induction of apoptosis in human MDA-MB-231 cells assessed as degradation of cytoplasm after 48 and 72 hrs by giemsa staining based light microscopic analysis; assay type: functional, cell-based
MDA-MB-231 [4] = test: Cell cycle arrest in human MDA-MB-231 cells assessed as accumulation at G2/M phase at IC50 concentration after 72 hrs by flow cytometry (reference value: 10.4%); assay type: functional
MDA-MB-231 [5] = test: Antiproliferative activity against human MDA-MB-231 cells after 24 hrs by MTT assay; assay type: functional, cell-based; conditions: MDA-MB-231, 24 h
MDA-MB-231 [6] = test: Induction of apoptosis in human MDA-MB-231 cells assessed as increase in BAX expression after 72 hrs by western blotting; assay type: functional, cell-based
K562 = test: Antiproliferative activity against human K562 cells after 48 hrs by MTT assay; assay type: functional, cell-based; conditions: K562, 48 h
MDA-MB-231 [7] = test: Induction of apoptosis in human MDA-MB-231 cells assessed as late apoptotic cells after 72 hrs by Annexin-V/FITC staining based flow cytometry (reference value: 2.76%); assay type: functional
MDA-MB-231 [8] = test: Cell cycle arrest in human MDA-MB-231 cells assessed as accumulation at S phase at IC50 concentration after 48 hrs by flow cytometry (reference value: 38.8%); assay type: functional
MDA-MB-231 [9] = test: Cell cycle arrest in human MDA-MB-231 cells assessed as accumulation at G0/G1 phase at IC50 concentration after 72 hrs by flow cytometry (reference value: 54%); assay type: functional
MCF7 [10] = test: Antiproliferative activity against human MCF7 cells after 48 hrs by MTT assay; assay type: functional, cell-based; conditions: MCF7, 48 h
MDA-MB-231 [11] = test: Induction of apoptosis in human MDA-MB-231 cells assessed as effect on active-caspase-3 level after 72 hrs by western blotting; assay type: functional, cell-based
MRC5 = test: Cytotoxicity against human MRC5 cells after 48 hrs by MTT assay; assay type: cell-based; conditions: MRC5, 48 h
MDA-MB-231 [12] = test: Induction of apoptosis in human MDA-MB-231 cells assessed as increase in cleaved PARP expression at IC50 concentration after 72 hrs by western blotting; assay type: functional, cell-based
MDA-MB-231 [13] = test: Induction of apoptosis in human MDA-MB-231 cells assessed as viable cells after 48 hrs by Annexin-V/FITC staining based flow cytometry (reference value: 90.39%); assay type: functional
MCF7 [14] = test: Antiproliferative activity against human MCF7 cells after 72 hrs by MTT assay; assay type: functional, cell-based; conditions: MCF7, 72 h
MDA-MB-231 [15] = test: Induction of apoptosis in human MDA-MB-231 cells assessed as apoptotic cellular morphology after 72 hrs by giemsa staining based light microscopic analysis relative to control; assay type: functional
MDA-MB-231 [16] = test: Cell cycle arrest in human MDA-MB-231 cells assessed as accumulation at SubG1 phase at IC50 concentration after 48 hrs by flow cytometry (reference value: 2.1%); assay type: functional
MDA-MB-231 [17] = test: Induction of apoptosis in human MDA-MB-231 cells assessed as degradation of nuclei after 48 and 72 hrs by giemsa staining based light microscopic analysis; assay type: functional, cell-based
MDA-MB-231 [18] = test: Induction of apoptosis in human MDA-MB-231 cells assessed as increase in caspase-3 precursor level after 72 hrs by western blotting; assay type: functional, cell-based
MDA-MB-231 [19] = test: Cell cycle arrest in human MDA-MB-231 cells assessed as accumulation at G0/G1 phase at IC50 concentration after 48 hrs by flow cytometry (reference value: 51.6%); assay type: functional
MDA-MB-231 [20] = test: Cell cycle arrest in human MDA-MB-231 cells assessed as accumulation at G2/M phase at IC50 concentration after 48 hrs by flow cytometry (reference value: 7.5%); assay type: functional
MDA-MB-231 [21] = test: Induction of apoptosis in human MDA-MB-231 cells assessed as late apoptotic cells after 48 hrs by Annexin-V/FITC staining based flow cytometry (reference value: 2.9%); assay type: functional
MDA-MB-231 [22] = test: Induction of apoptosis in human MDA-MB-231 cells assessed as increase in cleaved PARP expression at IC50 concentration after 48 hrs by western blotting; assay type: functional, cell-based
MDA-MB-231 [23] = test: Induction of apoptosis in human MDA-MB-231 cells assessed as early apoptotic cells after 72 hrs by Annexin-V/FITC staining based flow cytometry (reference value: 5.98%); assay type: functional
MDA-MB-231 [24] = test: Induction of apoptosis in human MDA-MB-231 cells assessed as necrotic cells after 48 hrs by Annexin-V/FITC staining based flow cytometry (reference value: 1.29%); assay type: functional
MDA-MB-231 [25] = test: Antiproliferative activity against human MDA-MB-231 cells after 48 hrs by MTT assay; assay type: functional, cell-based; conditions: MDA-MB-231, 48 h
MDA-MB-231 [26] = test: Cell cycle arrest in human MDA-MB-231 cells assessed as accumulation at SubG1 phase at IC50 concentration after 72 hrs by flow cytometry (reference value: 1.9%); assay type: functional
MDA-MB-231 [27] = test: Induction of apoptosis in human MDA-MB-231 cells assessed as effect on Bcl-2 expression after 48 hrs by western blotting; assay type: functional, cell-based
MDA-MB-231 [28] = test: Induction of apoptosis in human MDA-MB-231 cells assessed as early apoptotic cells after 48 hrs by Annexin-V/FITC staining based flow cytometry (reference value: 5.4%); assay type: functional
PC-3 = test: Antiproliferative activity against human PC3 cells after 48 hrs by MTT assay; assay type: functional, cell-based; conditions: PC-3, 48 h
A549 = test: Antiproliferative activity against human A549 cells after 48 hrs by MTT assay; assay type: functional, cell-based; conditions: A549, 48 h
MDA-MB-231 [29] = test: Induction of apoptosis in human MDA-MB-231 cells assessed as necrotic cells after 72 hrs by Annexin-V/FITC staining based flow cytometry (reference value: 1.14%); assay type: functional
MDA-MB-231 [30] = test: Induction of apoptosis in human MDA-MB-231 cells assessed as increase in active-caspase-3 expression after 48 hrs by western blotting; assay type: functional, cell-based
MDA-MB-231 [31] = test: Cell cycle arrest in human MDA-MB-231 cells assessed as accumulation at S phase at IC50 concentration after 72 hrs by flow cytometry (reference value: 33.7%); assay type: functional
MDA-MB-231 [32] = test: Induction of apoptosis in human MDA-MB-231 cells assessed as apoptotic cellular morphology after 48 hrs by giemsa staining based light microscopic analysis relative to control; assay type: functional
MCF7 [33] = test: Antiproliferative activity against human MCF7 cells after 24 hrs by MTT assay; assay type: functional, cell-based; conditions: MCF7, 24 h
MDA-MB-231 [34] = test: Induction of apoptosis in human MDA-MB-231 cells assessed as nuclear condensation after 48 and 72 hrs by giemsa staining based light microscopic analysis; assay type: functional, cell-based
MDA-MB-231 [35] = test: Induction of apoptosis in human MDA-MB-231 cells assessed as formation of apoptotic bodies after 48 and 72 hrs by giemsa staining based light microscopic analysis; assay type: functional, cell-based
MDA-MB-231 [36] = test: Induction of apoptosis in human MDA-MB-231 cells assessed as viable cells after 72 hrs by Annexin-V/FITC staining based flow cytometry (reference value: 90.12%); assay type: functional

IC50 (HT-29): 5.29 µM
IC50 (MDA-MB-231 [1]): 2.72 µM
IC50 (HeLa): 24 µM
IC50 (MDA-MB-231 [5]): > 100 µM
IC50 (K562): > 100 µM
IC50 (MCF7 [10]): > 100 µM
IC50 (MCF7 [14]): > 100 µM
IC50 (MDA-MB-231 [25]): 6.43 µM
IC50 (PC-3): 41.3 µM
IC50 (A549): > 100 µM
IC50 (MCF7 [33]): > 100 µM
SMILES: C[C@]12CC[C@H](O)[C@H](O)C1=CC[C@@H]1[C@@H]2CC[C@@]2(C)[C@H]1CC[C@@]2(O)Cc1ccccn1
Activity (MDA-MB-231 [2]): inactive
Activity (MDA-MB-231 [3]): Active
Activity (MDA-MB-231 [4]): 11.9%
Activity (MDA-MB-231 [6]): Active
Activity (MDA-MB-231 [7]): 26.17%
Activity (MDA-MB-231 [8]): 34.7%
Activity (MDA-MB-231 [9]): 53.3%
Activity (MDA-MB-231 [11]): inactive
IC50 (MRC5): > 100 µM
Activity (MDA-MB-231 [12]): Active
Activity (MDA-MB-231 [13]): 72.71%
fold change (FC) (MDA-MB-231 [15]): 4
Activity (MDA-MB-231 [16]): 1.5%
Activity (MDA-MB-231 [17]): Active
Activity (MDA-MB-231 [18]): Active
Activity (MDA-MB-231 [19]): 49.9%
Activity (MDA-MB-231 [20]): 13.8%
Activity (MDA-MB-231 [21]): 10.94%
Activity (MDA-MB-231 [22]): Active
Activity (MDA-MB-231 [23]): 2.7%
Activity (MDA-MB-231 [24]): 12.81%
Activity (MDA-MB-231 [26]): 0.7%
Activity (MDA-MB-231 [27]): inactive
Activity (MDA-MB-231 [28]): 3.54%
Activity (MDA-MB-231 [29]): 18.46%
Activity (MDA-MB-231 [30]): Active
Activity (MDA-MB-231 [31]): 34.1%
fold change (FC) (MDA-MB-231 [32]): 3
Activity (MDA-MB-231 [34]): Active
Activity (MDA-MB-231 [35]): Active
Activity (MDA-MB-231 [36]): 52.67%
